Experiments:
Format in all cases: in vivo
[1] = tested on: barnyardgrass (Echinochloa crus-galli L.), ECHCG; test: Test Example 2 post-emergence (foliage treatment) herbicidal activity, ECHCG; conditions: 63 g a.i./ha
Description: (§1) Upland field soil was put into a 1/170,000 ha pot, and seeds of various plants were sown. Then, when the plants reached predetermined leaf stages {1. barnyardgrass (Echinochloa crus-galli L.), ECHCG: 1.1-2.1 leaf stage, 2. crabgrass (Digitaria sanguinalis L.), DIGSA: 1.0-2.0 leaf stage, 3. green foxtail (Setaria viridis L.), SETVI: 1.0-2.2 leaf stage, 4. redroot pigweed (Amaranthus retroflexus L.), AMARE: 0.1-1.5 leaf stage, 5. prickly sida (Sida spinosa L.), SIDSP: 0.1-0.6 leaf stage, 6. velvetleaf (Abutilon theophrasti), ABUTH: 0.1-0.6 leaf stage, 7. common cocklebur (Xanthium strumarium L.), XANST: 0.1 leaf stage, 8. rice (Oryza sativa L.), ORYSA; 1.0-2 leaf stage, 9. wheat (Triticum aestivum L.), TRZAX: 2.3-3.5 leaf stage, 10. corn (Zea mays L.), ZEAMXN 2.1-2.6 leaf stage, 11. soybean (Glycine max Merr.), GLXMA: primary leaf stage}, a wettable powder or emulsifiable concentrate having the compound of the present invention formulated in accordance with a usual formulation method, was weighed so that the active ingredient would be a predetermined amount, and diluted with water in an amount of 500 L/ha. To the diluted solution, 0.1% (v/v) of an agricultural spreader was added. The herbicide adjusted was applied by a small size sprayer for foliage treatment. On the 20th to 23rd day after the application of the herbicide, the growth of the respective plants was visually observed, and the herbicidal effects were evaluated by growth controlling degrees (%) ranging from 0 (equivalent to the untreated control) to 100 (complete kill), whereby the results shown in Table 5, were obtained. Compound Nos. in Table 5 correspond to Compound Nos. in Table 1 and 2 given hereinbefore.

[2] = tested on: soybean (Glycine max Merr.): GLXMA; test: Test Example 1 pre-emergence herbicidal activity, GLXMA; conditions: visually observed 20th to 23rd day after application
Description: (§2) Upland field soil was put into a 1/170,000 ha pot, and seeds of various plants {1. barnyardgrass (Echinochloa crus-galli L.): ECHCG, 2. crabgrass (Digitaria sanguinalis L.): DIGSA, 3. green foxtail (Setaria viridis L.): SETVI, 4. redroot pigweed (Amaranthus retroflexus L.): AMARE, 5. prickly sida (Sida spinosa L.): SEDSP, 6. velvetleaf (Abutilon theophrasti): ABUTH, 7. common cocklebur (Xanthium strumarium L.): XANST, 8. rice (Oryza sativa L.): ORYSA, 9. wheat (Triticum aestivum L.): TRZAX, 10. corn (Zea mays L.): ZEAMX, 11. soybean (Glycine max Merr.): GLXMA} were sown. Then, one day after the sowing, a wettable powder or emulsifiable concentrate having the compound of the present invention formulated in accordance with a usual formulation method, was weighed so that the active ingredient would be a predetermined amount and diluted with water in an amount of 500 L/ha. The herbicide adjusted was applied by a small size sprayer for preemergence treatment. On the 20th to 23rd day after the application of the herbicide, the growth of the respective plants was visually observed, and the herbicidal effects were evaluated by growth controlling degrees (%) ranging from 0 (equivalent to the untreated control) to 100 (complete kill), whereby the results shown in Table 4, were obtained. Compound Nos. in Table 4 correspond to Compound Nos. in Table 1 and 2 given hereinbefore.

[3] = tested on: prickly sida (Sida spinosa L.): SEDSP; test: Test Example 1 pre-emergence herbicidal activity, SIDSP; conditions: visually observed 20th to 23rd day after application
Description: as §2

[4] = tested on: green foxtail (Setaria viridis L.), SETVI; test: Test Example 2 post-emergence (foliage treatment) herbicidal activity, SETVI; conditions: 63 g a.i./ha
Description: as §1

[5] = tested on: crabgrass (Digitaria sanguinalis L.), DIGSA; test: Test Example 2 post-emergence (foliage treatment) herbicidal activity, DIGSA; conditions: 63 g a.i./ha
Description: as §1

[6] = tested on: corn (Zea mays L.), ZEAMX; test: Test Example 2 post-emergence (foliage treatment) herbicidal activity, ZEAMX; conditions: 63 g a.i./ha
Description: as §1

[7] = tested on: corn (Zea mays L.): ZEAMX; test: Test Example 1 pre-emergence herbicidal activity, ZEAMX; conditions: visually observed 20th to 23rd day after application
Description: as §2

[8] = tested on: rice (Oryza sativa L.): ORYSA; test: Test Example 1 pre-emergence herbicidal activity, ORYSA; conditions: visually observed 20th to 23rd day after application
Description: as §2

[9] = tested on: crabgrass (Digitaria sanguinalis L.): DIGSA; test: Test Example 1 pre-emergence herbicidal activity, DIGSA; conditions: visually observed 20th to 23rd day after application
Description: as §2

[10] = tested on: soybean (Glycine max Merr.), GLXMA; test: Test Example 2 post-emergence (foliage treatment) herbicidal activity, GLXMA; conditions: 63 g a.i./ha
Description: as §1

[11] = tested on: wheat (Triticum aestivum L.): TRZAX; test: Test Example 1 pre-emergence herbicidal activity, TRZAX; conditions: visually observed 20th to 23rd day after application
Description: as §2

[12] = tested on: wheat (Triticum aestivum L.), TRZAX; test: Test Example 2 post-emergence (foliage treatment) herbicidal activity, TRZAX; conditions: 63 g a.i./ha
Description: as §1

[13] = tested on: green foxtail (Setaria viridis L.): SETVI; test: Test Example 1 pre-emergence herbicidal activity, SETVI; conditions: visually observed 20th to 23rd day after application
Description: as §2

[14] = tested on: prickly sida (Sida spinosa L.), SIDSP; test: Test Example 2 post-emergence (foliage treatment) herbicidal activity, SIDSP; conditions: 63 g a.i./ha
Description: as §1

[15] = tested on: barnyardgrass (Echinochloa crus-galli L.): ECHCG; test: Test Example 1 pre-emergence herbicidal activity, ECHCG; conditions: visually observed 20th to 23rd day after application
Description: as §2

[16] = tested on: redroot pigweed (Amaranthus retroflexus L.): AMARE; test: Test Example 1 pre-emergence herbicidal activity, AMARE; conditions: visually observed 20th to 23rd day after application
Description: as §2

[17] = tested on: rice (Oryza sativa L.), ORYSA; test: Test Example 2 post-emergence (foliage treatment) herbicidal activity, ORYSA; conditions: 63 g a.i./ha
Description: as §1

[18] = tested on: velvetleaf (Abutilon theophrasti): ABUTH; test: Test Example 1 pre-emergence herbicidal activity, ABUTH; conditions: visually observed 20th to 23rd day after application
Description: as §2

[19] = tested on: velvetleaf (Abutilon theophrasti), ABUTH; test: Test Example 2 post-emergence (foliage treatment) herbicidal activity, ABUTH; conditions: 63 g a.i./ha
Description: as §1

Compound | growth controlling degree, ECHCO [1] [%] | Pre-emergence Herbicidal Activity GLXMA (growth controlling degree) ([2]; Rate 63 g a.i./ha) [%] | Pre-emergence Herbicidal Activity SIDSP (growth controlling degree) ([3]; Rate 63 g a.i./ha) [%] | growth controlling degree, SETVI [4] [%] | growth controlling degree, DIGSP [5] [%] | growth controlling degree, ZEAMX [6] [%] | Pre-emergence Herbicidal Activity ZEAMX (growth controlling degree) ([7]; Rate 63 g a.i./ha) [%] | Pre-emergence Herbicidal Activity ORYSA (growth controlling degree) ([8]; Rate 63 g a.i./ha) [%] | Pre-emergence Herbicidal Activity DIGSP (growth controlling degree) ([9]; Rate 63 g a.i./ha) [%] | growth controlling degree, GLXMA [10] [%] | Pre-emergence Herbicidal Activity TRZAX (growth controlling degree) ([11]; Rate 63 g a.i./ha) [%] | growth controlling degree, TRZAX [12] [%] | Pre-emergence Herbicidal Activity SETVI (growth controlling degree) ([13]; Rate 63 g a.i./ha) [%] | growth controlling degree, SIDSP [14] [%] | Pre-emergence Herbicidal Activity ECHCG (growth controlling degree) ([15]; Rate 63 g a.i./ha) [%] | Pre-emergence Herbicidal Activity AMARE (growth controlling degree) ([16]; Rate 63 g a.i./ha) [%] | growth controlling degree, ORYSA [17] [%] | Pre-emergence Herbicidal Activity ABUTH (growth controlling degree) ([18]; Rate 63 g a.i./ha) [%] | growth controlling degree, ABUTH [19] [%] | also measured
COc1c(Cl)cc(F)c(-c2nn(C)c(OC(F)F)c2Cl)c1NC(=O)C=Cc1ccc(F)cc1 [Compound 1-258] | 60 | 0 | 70 | 60 | 40 | 10 | 0 | 40 | 70 | 20 | 0 | 10 | 30 | 100 | 10 | 100 | 40 | 70 | 100 | –
COc1c(Cl)cc(F)c(-c2nn(C)c(OC(F)F)c2Cl)c1NC(=O)C=Cc1ccccc1F [Compound 1-256] | 60 | 0 | 60 | 90 | 60 | 30 | 0 | 30 | 90 | 60 | 10 | 60 | 70 | 100 | 60 | 100 | 80 | 70 | 100 | –
COc1c(Cl)cc(F)c(-c2nn(C)c(OC(F)F)c2Cl)c1NC(=O)c1ccc(C)cc1 [Compound 1-261] | 100 | 0 | 100 | 100 | 95 | 40 | 0 | 40 | 100 | 70 | 10 | 30 | 98 | 100 | 80 | 100 | 70 | 80 | 100 | –
COc1c(Cl)cc(F)c(-c2nn(C)c(OC(F)F)c2Cl)c1NC(=O)C(C)c1ccccc1 (stereo not shown) [Compound 1-41] | 20 | – | – | 40 | 30 | 0 | – | – | – | 40 | – | 30 | – | 100 | – | – | 30 | – | 100 | Pre-emergence Herbicidal Activity GLXMA (growth controlling degree) ([2]; Rate 10 g a.i./ha): 0%; Pre-emergence Herbicidal Activity SIDSP (growth controlling degree) ([3]; Rate 10 g a.i./ha): 40%; Pre-emergence Herbicidal Activity ZEAMX (growth controlling degree) ([7]; Rate 10 g a.i./ha): 0%; Pre-emergence Herbicidal Activity ORYSA (growth controlling degree) ([8]; Rate 10 g a.i./ha): 0%; Pre-emergence Herbicidal Activity DIGSP (growth controlling degree) ([9]; Rate 10 g a.i./ha): 50%; Pre-emergence Herbicidal Activity TRZAX (growth controlling degree) ([11]; Rate 10 g a.i./ha): 0%; Pre-emergence Herbicidal Activity SETVI (growth controlling degree) ([13]; Rate 10 g a.i./ha): 100%; Pre-emergence Herbicidal Activity ECHCG (growth controlling degree) ([15]; Rate 10 g a.i./ha): 30%; Pre-emergence Herbicidal Activity AMARE (growth controlling degree) ([16]; Rate 10 g a.i./ha): 50%; Pre-emergence Herbicidal Activity ABUTH (growth controlling degree) ([18]; Rate 10 g a.i./ha): 0%

— patent publication US20050245399A1, “Pyrazole derivatives as herbicidal compositions containing them” (ISHIHARA SANGYO KAISHA, LTD., priority 2004, published 2005)
